“Also recorded” adds a separate entry of the source. One block for each compound: values may come before it.
Columns and labels:
Rabbit corneas = experiment: Ex Vivo Eye Irritation Test (EVEIT), corneal healing
Protocol: Anim., 2008 (36) p 25-32; and N. Schrage et al, Graefes Arch Clin Exp Ophthalmol 2012 (250), 1330-1340).
Method. Rabbit corneas were obtained and placed in an artificial anterior ocular chamber which was gently filled with serum-free minimal essential medium (Eagle's MEM) containing Earle's salts and HEPES buffer for nutrition. The medium was contstantly replenished by a micropump to imitate the physiological condition of the eye. The culture chambers were held at 32° C. under normal air without supplementary CO2 and >95% relative humidity. Five corneas per test substance (n=5) were used except for the postive control with which two corneas (n=2) were tested.
After 12 h of stabilization in the culture chamber, the corneas were evaluated by microscopy and corneas with intact epithelium and without opacities were selected. Four small abrasions (2.3-4.3 mm^2) were applied to the surface of the selected corneas with a cornea drill. All defects were monitored by fluorescein sodium staining (0.17% aq. solution) and microscopy.
The test substances were administered one hour after induction of the corneal erosion and were applied six times daily onto the apex of the corneas (30-50 μL every four hours). A soft-tipped cannula, with continuous suction was placed on the lowest part of the corneoscleral region within the culturing chamber to remove any excess fluid. Experiments were terminated after 3 days of application. Biomicroscopic images of the corneas were taken daily to document the corneal healing process using a phase-contrast microscope integrated camera (KY-F1030U, JVC, (Bad Vilbel, DE) mounted on a Z16 APO Microscope (Wetzlar, DE)). All defects were monitored by fluorescein sodium stains (0.17% aq. solution) with yellow green fluorescence indicating the areas of epithelial defects. Erosion sizes were determined using a software tool of the microscope (DISKUS). At the end of the 3 days, the experiment was terminated and all corneas were fixed in 3.7% formaldehyde and stained with a hematoxylin-eosin dye for microscopic evaluation. To monitor the metabolic activity of the cornea, glucose and lactate concentrations were photometrically quantified in the outflow medium from the artificial anterior chambers.

[1] = Differential Scanning Calorimetry of mixtures; assay type: physicochemical
Protocol: Differential Scanning calorimetry (DSC 1, Mettler Toledo, Greifensee, Switzerland) is used to characterize structure and phase behavior of mixtures of CF3(CF2)5—CH(CH3)—(CH2)5—CH3 and CF3(CF2)5(CH2)7CH3. DSC was employed to obtain data on transitions by temperature rising scans with heating rate of 1° C./min. Sealed standard aluminum crucibles (40 μl, Mettler Toledo) were used.

[2] = Refractive index of mixtures; assay type: physicochemical; details: FIG. 2, in words
Protocol: The refractive index of the mixtures was also determined. For topically applied ophthalmic compositions, the refractive index of the composition should preferably similar, or adapted to that of the eye and lens, for instance as close to that of physiological tear fluid as possible. If the refractive index of a composition is not similar, when applied to the surface of the eye, a patient may experience blurring or impaired vision. […] By varying the amount of this semifluorinated alkane in the mixture, it may also be feasible to adapt the composition to the requirements of the intended ophthalmic use, for instance adapting to a patient with an altered tear fluid composition and refractive index, due to an eye condition and/or age.

[3] = Evaporation time of mixtures; assay type: physicochemical; details: FIG. 1, in words
Protocol: The evaporation time of mixtures of the semifluorinated alkane CF3(CF2)5(CH2)7CH3 and CF3(CF2)5—CH(CH3)—(CH2)5—CH3 was evaluated. A droplet of 10 μL volume of each mixture was placed on a glass surface at room temperature. Time until evaporation was recorded by video-monitoring.

[4] = hematoxylin-eosin stained corneas after 3 days of application

Compound: benzalkonium chloride [0.01% BAC]
Corneal Erosion Size, Mean (SD) (Rabbit corneas; Day 0 (before application)): 11.57 (0.86) mm^2
Corneal Erosion Size, Mean (SD) (Rabbit corneas; Day 1, applied six times daily, 30-50 μL): 5.91 (0.28) mm^2
Corneal Erosion Size, Mean (SD) (Rabbit corneas; Day 2, applied six times daily, 30-50 μL): 8.74 (7.6) mm^2
Corneal Erosion Size, Mean (SD) (Rabbit corneas; Day 3, applied six times daily, 30-50 μL): 17.46 (6.43) mm^2
Day 3 Histological Observations: Descemet membrane and endothelium (Rabbit corneas; [4]): Descemet membrane is present with intact endothelium
Day 3 Histological Observations: epithelium, stroma, corneal structure (Rabbit corneas; [4]): Severe alterations of the superficial cornea with disintegration of; also recorded: Reduced staining of background substance indicating chemical
Day 3 Histological Observations: keratocytes (Rabbit corneas; [4]): Severe reduction in number of keratocyte cells which also appear
course of the induced epithelial erosions/lesions (Rabbit corneas; over the three days of the experiment, in words): progressive increase

Low temperature transition Endset ([1]; DSC, heating rate 1° C./min): −38.32 °C
Low temperature transition Onset ([1]; DSC, heating rate 1° C./min): −45.47 °C
Low temperature transition Peak ([1]; DSC, heating rate 1° C./min): −40.37 °C
Low temperature transition ΔH ([1]; DSC, heating rate 1° C./min): -0.69 J/g
Melting transition Endset ([1]; DSC, heating rate 1° C./min): −2.14 °C
Melting transition Onset ([1]; DSC, heating rate 1° C./min): −6.33 °C
Melting transition Peak ([1]; DSC, heating rate 1° C./min): −4.53 °C
Melting transition ΔH ([1]; DSC, heating rate 1° C./min, label = wt % CF3—(CF2)5—CH(CH3)—(CH2)5—CH3 in mixture with CF3(CF2)5(CH2)7CH3): -36.57 J/g
Compound: CCCCCCCCC(F)(F)C(F)(F)C(F)(F)C(F)(F)C(F)(F)C(F)(F)F [Composition 0, 1-perfluorohexyloctane]

Compound: CCCCCCC(C)C(F)(F)C(F)(F)C(F)(F)C(F)(F)C(F)(F)C(F)(F)F (centres unmarked) [CF3—(CF2)5—CH(CH3)—(CH2)5—CH3, 2-perfluorohexyloctane]
effect of increased content on refractive index of the mixtures [2]: increasing refractive index value
effect of increasing percentage on evaporation time of the mixtures [3]: decreases the evaporation time
effect on melting enthalpy when present in a mixture with F6H8 ([1]; in words): decreased
effect on melting temperature when present in a mixture with F6H8 ([1]; in words): significant reduction in the melting temperature

— US12128010B2, “Semifluorinated compounds and their compositions” (NOVALIQ GMBH, priority 2015, dated 2024)
